Assay results taken from patent publication US8404664B2, “Phosphonated Rifamycins and uses thereof for the prevention and treatment of bone and joint infections” (Targanta Therapeutics, Inc., priority 2005, dated 2013).
In brackets after ≈: the same amount, converted by molar mass.

Legend:
S. aureus ATCC 13709 [1] = assay: Antibacterial susceptibility (MIC) in the presence of serum; type: cell-based; conditions: for MIC: Staphylococcus aureus, ATCC13709, 18 h
[2] = tested on: S. aureus BK85 (Fluoroquinolone resistant MRSA); assay: Antibacterial susceptibility (MIC), NCCLS broth microdilution; type: cell-based
Procedure, shortened: (§1)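 Two-fold serial dilutions in DMSO tested in cation-adjusted Mueller Hinton broth per NCCLS M26-A, 5×10^5 c.f.u./mL inoculum, 1.25% final DMSO, duplicates.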

[3] = tested on: S. aureus ATCC 43300 (Fluoroquinolone sensitive MRSA); assay: as above; type: cell-based
Procedure, shortened: as §1

S. aureus RN4220 = assay: as above; type: cell-based; conditions: CAMHB, 37° C., 18 h
Procedure, shortened: as §1

S. aureus ATCC 13709 [4] = assay: as above; type: cell-based; conditions: for Antibacterial activity (in words, summary of Table 1): summary over the strains of Table 1
Procedure, shortened: as §1

[5] = tested on: E. coli LBB925 (tolC mutant); assay: as above; type: cell-based; conditions: for Minimum inhibitory concentration, E. coli LBB925: tolC mutant
[6] = Regeneration of drug from bone powder-bound prodrug; type: in vitro ADME; conditions: for % Conversion of bone-bound prodrug to parent drug: 24 h incubation, 37° C.; for Impact of the medium on the rate of regeneration of parent drug (in words): serum compared to PBS
[7] = tested on: S. aureus (chronic bone infection); assay: Treatment of chronic osteomyelitis caused by S. aureus in rat model; type: in vivo; conditions: for Effect on bacterial titer in bone infection versus the untreated control (figure legends) / Decrease in bacterial titer: prodrug iv at 20 mg/kg parent equivalent; for Effect on bacterial titer in bone infection versus the untreated control (figure legends): regimen of the figure, 4 weeks post-infection; for Decrease in bacterial titer: q24hx4+q4 days, FIGS. 3, 4, 5
Description: To appraise the ability of bisphosphonated prodrugs of Rifamycin derivatives in treating chronic bone infections, a comparison was made between parent compounds 9, 56, 69, rifabutin and rifalazil (all of which are non-bisphosphonated rifamycin derivatives), and their corresponding bisphosphonated prodrugs, respectively 11, 62, 71, 36 and 81, when used to treat chronically (14- to 28-day) infected rats for 4 weeks of antimicrobial therapy.
In this experiment, rats were infected as described in Example 4 and treated with either 20 mg/kg of body weight of the specific rifamycin derived antibacterial agent subcutaneously, or a molar equivalent dose of its bisphosphonated prodrug intravenously according to the indicated schedule after instillation of bacteria. The standard controls involving no treatment and a subcutaneous treatment of 20 mg/kg of Rifampicin daily were also included. The rats were humanely sacrificed at the conclusion of the experiment and the bacterial titers in the infected tibiae were determined.
This experiment was performed with 20 mg/kg of body weight of rifamycin derivative 9 subcutaneously or with 32 mg/kg of its prodrug 11 (corresponding to 20 mg/kg of 9) intravenously on each of the 20th, 24th, 28th, 32nd, 36th, 40th and […] days (q4 days) after instillation of bacteria. Alternatively, 11 was administered by the same route and at the same dose on the 20th, 21st, 22nd, 23rd, 30th, 37th, 44th and 47th days (q24hx4+q7d) after the instillation of bacteria. The same controls (no treatment or daily subcutaneous 20 mg/kg dose of rifampicin) were used. The rats were humanely sacrificed on the 48th day after the initiation of infection and the bacterial titers in the infected tibiae were determined.
This experiment was also executed in which similarly infected rats were treated with either 20 mg/kg of body weight of rifabutin subcutaneously or with 33.4 mg/kg of its prodrug 36 (corresponding to 20 mg/kg of rifabutin) intravenously on each of the 28th, 32nd, 36th, 40th, 44th, 48th and 52nd days (q4 days) after instillation of bacteria. The same controls (no treatment or daily subcutaneous 20 mg/kg dose of rifampicin) were used. The rats were humanely sacrificed on the 55th day after the initiation of infection and the bacterial titers in the infected tibiae were determined.
This experiment was also executed in which similarly infected rats were treated with either 20 mg/kg of body weight of the rifamycin derived antibacterial agent 56 subcutaneously or with 26 mg/kg of its prodrug 62 (corresponding to 20 mg/kg of 56) intravenously on each of the 27th, 28th, 29th, 30th, 34th, 38th, 42nd, 46th and 50th days (q24hx4+q4 days) after instillation of bacteria. The same controls (no treatment or daily subcutaneous 20 mg/kg dose of rifampicin) were used. The rats were humanely sacrificed on the 51^St day after the initiation of infection and the bacterial titers in the infected tibiae were determined.
This experiment was also executed in which similarly infected rats were treated with either 20 mg/kg of body weight of the rifamycin derived antibacterial agent 69 subcutaneously or with 28 mg/kg of its prodrug 71 (corresponding to 20 mg/kg of 69) intravenously on each of the 18th, 19th, 20th, 21st, 25th, 29th, 33rd, 37th, 41st and 45th days (q24hx4+q4 days) after instillation of bacteria. The same controls (no treatment or daily subcutaneous 20 mg/kg dose of rifampicin) were used. The rats were humanely sacrificed on the 46th day after the initiation of infection and the bacterial titers in the infected tibiae were determined.

[8] = FIG. 1: 9 20 mg/kg sc q4 days, 11 32 mg/kg iv q4d or q24hx4+q7d

Row | Molecule | Minimum inhibitory concentration, S. aureus ATCC 13709 + 50% Human Serum (S. aureus ATCC 13709 [1]) [µg/mL] | Minimum inhibitory concentration, S. aureus ATCC 13709 + 50% Mouse Serum (S. aureus ATCC 13709 [1]) [µg/mL] | Minimum inhibitory concentration, S. aureus ATCC 13709 + 50% Rat Serum (S. aureus ATCC 13709 [1]) [µg/mL] | Minimum inhibitory concentration, S. aureus BK85 [2] [µg/mL] | Minimum inhibitory concentration, S. aureus ATCC 43300 [3] [µg/mL] | Minimum inhibitory concentration, S. aureus RN4220 (S. aureus RN4220) [µg/mL] | Minimum inhibitory concentration, S. aureus ATCC 13709 (S. aureus ATCC 13709 [4]) [µg/mL] | Minimum inhibitory concentration, E. coli LBB925 [5] [µg/mL] | Regeneration of parent drug once bound to bone (in words) [6] | % Conversion of bone-bound prodrug to parent drug ([6]; 50% Human Serum) [%] | % Conversion of bone-bound prodrug to parent drug ([6]; 50% Rat Serum) [%] | % Conversion of bone-bound prodrug to parent drug ([6]; PBS) [%] | Impact of the medium on the rate of regeneration of parent drug (in words) [6] | Effect on bacterial titer in bone (in words) [7, 8] | Effect on bacterial titer in bone infection versus the untreated control (figure legends) [7] | Antibacterial activity (in words, summary of Table 1) (S. aureus ATCC 13709 [4]) | Decrease in bacterial titer [7] | also measured
1 | 3-(((4-(2-(3-((bisphosphonomethyl)carbamoyl)propanoyloxy)ethyl)-1-piperazinyl)imino)methyl)rifamycin [Compound 11] | 0.25 | 0.25 | 0.25 | 0.25 | 0.25 | 0.25 | 0.125 | 32 | appreciable rates of regeneration | 1.01 | 1.01 | 0.97 | not significantly impacted | not statistically significant | small but not statistically significant effect |  |  | Impact of serum on the MICs (in words) (S. aureus ATCC 13709 [1]): no impact
2 | CO[C@H]1/C=C/O[C@@]2(C)Oc3c(C)c(O)c4c(O)c(c(/C=N/N5CCN(CCO)CC5)c(O)c4c3C2=O)NC(=O)/C(C)=C\C=C\[C@H](C)[C@H](O)[C@@H](C)[C@@H](O)[C@@H](C)[C@H](OC(C)=O)[C@@H]1C [Compound 9, 3-(((4-(2-hydroxyethyl)-1-piperazinyl)imino)methyl)rifamycin] |  |  |  |  |  |  |  |  |  |  |  |  |  | completely ineffective |  |  |  | MIC (S. aureus ATCC 13709 [1]; read-out: Minimum inhibitory concentration, S. aureus ATCC 13709 + 50% Human Serum): 0.062 µg/mL; MIC (S. aureus ATCC 13709 [1]; read-out: Minimum inhibitory concentration, S. aureus ATCC 13709 + 50% Mouse Serum): 0.062 µg/mL; MIC (S. aureus ATCC 13709 [1]; read-out: Minimum inhibitory concentration, S. aureus ATCC 13709 + 50% Rat Serum): 0.062 µg/mL; MIC ([2]; Staphylococcus aureus, read-out: Minimum inhibitory concentration, S. aureus BK85): 0.016 µg/mL (≈ 0.0188 µM); MIC ([3]; Staphylococcus aureus, read-out: Minimum inhibitory concentration, S. aureus ATCC 43300): 0.016 µg/mL (≈ 0.0188 µM); MIC (S. aureus RN4220; Staphylococcus aureus, RN4220, read-out: Minimum inhibitory concentration, S. aureus RN4220): 0.016 µg/mL (≈ 0.0188 µM); MIC (S. aureus ATCC 13709 [4]; Staphylococcus aureus, ATCC13709, read-out: Minimum inhibitory concentration, S. aureus ATCC 13709): 0.016 µg/mL (≈ 0.0188 µM); MIC ([5]; Escherichia coli, read-out: Minimum inhibitory concentration, E. coli LBB925): 16 µg/mL (≈ 18.8 µM); Effect on bacterial titer in bone (in words) ([7]; 20 mg/kg sc once daily, 15th to 28th day after infection, FIG. 6): smaller but still statistically significant reduction
3 | CO[C@H]1/C=C/O[C@@]2(C)Oc3c(C)c(O)c4c(=O)c(c5oc6cc(N7CCN(CCOC(=O)CCC(=O)NC(P(=O)(O)O)P(=O)(O)O)CC7)cc(O)c6nc-5c4c3C2=O)NC(=O)/C(C)=C\C=C\[C@H](C)[C@H](O)[C@@H](C)[C@@H](O)[C@@H](C)[C@H](OC(C)=O)[C@@H]1C.N.N [Compound 62] | 0.032 | 0.032 | 0.0156 | 0.0078 | 0.0078 | 0.0078 | 0.0039 | >128 | appreciable rates of regeneration | 0.86 | 0.91 | 0.21 | significant acceleration |  | small but statistically significant effect | very low MICs | approximately 1 logarithmic order of magnitude | 
4 | CO[C@H]1/C=C/O[C@@]2(C)Oc3c(C)c(O)c4c(=O)c(c5oc6cc(N7CCN(CCC(=O)c8ccc(OCCCC(P(=O)(O)O)P(=O)(O)O)cc8)CC7)cc(O)c6nc-5c4c3C2=O)NC(=O)/C(C)=C\C=C\[C@H](C)[C@H](O)[C@@H](C)[C@@H](O)[C@@H](C)[C@H](OC(C)=O)[C@@H]1C [Compound 71] | 0.032 | 0.032 | 0.032 | 0.0019 (≈ 0.00152 µM) | 0.0019 (≈ 0.00152 µM) | 0.0039 (≈ 0.00312 µM) | 0.0019 (≈ 0.00152 µM) | >128 |  | 0.46 | 0.38 | 0.1 | significant acceleration |  | small but statistically significant effect | very low MICs | approximately 1 logarithmic order of magnitude | 
5 | CO[C@H]1/C=C/O[C@@]2(C)Oc3c(C)c(O)c4c(=O)c(c5oc6cc(N7CCN(CC(C)C)CC7)cc(O)c6nc-5c4c3C2=O)NC(=O)/C(C)=C\C=C\[C@H](C)[C@H](OC(=O)CCCOC(=O)CCC(=O)NC(P(=O)(O)O)P(=O)(O)O)[C@@H](C)[C@@H](O)[C@@H](C)[C@H](OC(C)=O)[C@@H]1C [Compound 81, 21-O-(4-((3-(bisphosphonomethyl)carbamoyl)propanoyloxy)butanoyl)-1′,4-Didehydro-1-deoxy-1,4-dihydro-3′-hydroxy-5′-[4-(2-methylpropyl)-1-piperazinyl]-1-oxorifamycin VIII] | 0.125 | 0.0625 | 0.03125 | 0.001 (≈ 0.000769 µM) | 0.001 (≈ 0.000769 µM) | 0.001 (≈ 0.000769 µM) | 0.001 (≈ 0.000769 µM) | >128 |  |  | 2.50 | 1.98 | not significantly impacted |  | small but statistically significant effect | very low MICs | approximately 1 logarithmic order of magnitude | 
